Experimental data from US8617523B2, “Anti-biofilm carbonate compounds for use in oral care compositions” (Colgate-Palmolive Company, priority 2009, dated 2013).
Converted amounts (≈) assume the structure as drawn.

Tests used:
A. naeslundii biofilm = test: crystal violet assay, anti-biofilm (MBEC); assay type: cell-based, Actinomyces naeslundii; conditions: single species of A. naeslundii biofilm
A. naeslundii = test: Minimal Inhibitory Concentration (MIC) anti-microbial test; assay type: cell-based; conditions: Actinomyces naeslundii; single species of A. naeslundii biofilm; read-out: MIC (Minimum Inhibitory Concentration, bactericidal)
Protocol: The anti-microbial test was measured according to the SOP No. ATO-5308-00 for determination of Minimal Inhibitory Concenctration (MIC).

SMILES | MBEC (Minimum Biofilm Eradication Concentration, anti-biofilm) (A. naeslundii biofilm) | MIC (A. naeslundii)
CCCCC(CC)COC(=O)OCCCCCCO (stereo not drawn) | 39 ppm | 78 µg/mL (≈ 284 µM)
CC(CCCC(C)(C)O)CCOC(=O)Oc1ccccc1 (stereo not drawn) | 78 ppm | 156 µg/mL (≈ 530 µM)
CC(C)C(O)C(C)(C)COC(=O)OC1CCCC1 (stereo not drawn) | 156 ppm | 625 µg/mL (≈ 2420 µM)
